Like-named read-outs stand apart in the source and are kept apart here.
Legend:
[1] = molecular target: T1, MAGL (Homo sapiens, UniProt Q99685); assay: Native MS (RapidFire) 2-AG substrate assay, purified human MAGL; assay type: biochemical; settings: purified human MAGL, native MS substrate assay; IC50 of covalent inhibitors time-dependent; read-out: IC50 hMAGL
T1 sequence (Q99685 1-303): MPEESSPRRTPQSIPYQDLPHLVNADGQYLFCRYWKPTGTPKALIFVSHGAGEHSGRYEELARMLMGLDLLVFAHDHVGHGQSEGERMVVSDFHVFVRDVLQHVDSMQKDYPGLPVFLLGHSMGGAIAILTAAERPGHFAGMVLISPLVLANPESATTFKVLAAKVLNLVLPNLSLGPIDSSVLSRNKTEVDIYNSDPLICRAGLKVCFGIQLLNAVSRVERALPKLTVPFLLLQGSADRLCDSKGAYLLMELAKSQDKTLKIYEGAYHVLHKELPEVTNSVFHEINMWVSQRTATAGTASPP
Method: (§1) In vitro MAGL Inhibition Assay
(§2) Compounds were profiled for MAGL inhibitory activity by determining the enzymatic activity by following the hydrolysis of the natural substrate 2-arachidonoylglycerol (2-AG), resulting in arachidonic acid, which can be followed by mass spectrometry. The 2-AG assay was carried out in 384 well assay plates (PP, Greiner Cat# 784201) in a total volume of 20 µL. Compound dilutions were made in 100% DMSO (VWR Chemicals 23500.297) in a polypropylene plate in 3-fold dilution steps to give a final concentration range in the assay from 12.5 µM to 0.8 pM. 0.25µL compound dilutions (100% DMSO) were added to 9 µL MAGL in assay buffer (50 mM TRIS (GIBCO, 15567-027), 1 mM EDTA (Fluka, 03690-100 mL), 0.01% (v/v) Tween. After shaking, the plate was incubated for 15 min at RT. To start the reaction, 10 µL 2-arachidonoylglycerol in assay buffer was added. The final concentrations in the assay were 50 pM MAGL and 8 µM 2-arachidonoylglyerol. After shaking and 30 min incubation at RT, the reaction was quenched by the addition of 40µL of ACN containing 4µM of d8-arachidonic acid. The amount of arachidonic acid was traced by an online SPE system (Agilent Rapidfire) coupled to a triple quadrupole mass spectrometer (Agilent 6460). A C18 SPE cartridge (G9205A) was used in an ACN/water liquid setup. The mass spectrometer was operated in negative electrospray mode following the mass transitions 303.1 → 259.1 for arachidonic acid and 311.1 → 267.0 for d8-arachidonic acid. The activity of the compounds was calculated based on the ratio of intensities [arachidonic acid / d8-arachidonic acid]. The lowest IC50 value that can be determined with high accuracy is approximately 0.025 nM.

[2] = molecular target: T2, cMAGL (Macaca fascicularis, UniProt A0A2K5V664); assay: Native MS (RapidFire) 2-AG substrate assay, purified cynomolgus monkey MAGL; assay type: biochemical
T2 sequence (A0A2K5V664 11-297): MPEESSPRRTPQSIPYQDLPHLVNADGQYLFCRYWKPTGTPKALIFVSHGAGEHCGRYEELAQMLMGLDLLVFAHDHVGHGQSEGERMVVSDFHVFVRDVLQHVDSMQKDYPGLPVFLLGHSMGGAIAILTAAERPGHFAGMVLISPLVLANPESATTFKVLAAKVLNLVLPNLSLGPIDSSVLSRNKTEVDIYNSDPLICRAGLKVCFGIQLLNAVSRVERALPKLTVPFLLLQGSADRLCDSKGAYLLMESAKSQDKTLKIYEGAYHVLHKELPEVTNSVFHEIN
Method: as §1, §2

[3] = molecular target: PDE4D2 (h) (Homo sapiens, UniProt Q08499); assay: PDE4D2 (h); settings: read-out: Inhibition PDE4D2 (h)
[4] = molecular target: GSK3alpha (h) (Homo sapiens, UniProt P49840); assay: GSK3alpha (h); settings: read-out: Inhibition GSK3alpha (h)
[5] = molecular target: FP (h) (Homo sapiens, UniProt P43088); assay: FP (h) (agonist radioligand); settings: read-out: Inhibition FP (h) (agonist radioligand)
[6] = molecular target: T3, 5-HT3 (h) (Homo sapiens, UniProt P46098); assay: 5-HT3 (h) (antagonist radioligand); settings: read-out: Inhibition 5-HT3 (h) (antagonist radioligand)
T3 sequence (P46098 24-478): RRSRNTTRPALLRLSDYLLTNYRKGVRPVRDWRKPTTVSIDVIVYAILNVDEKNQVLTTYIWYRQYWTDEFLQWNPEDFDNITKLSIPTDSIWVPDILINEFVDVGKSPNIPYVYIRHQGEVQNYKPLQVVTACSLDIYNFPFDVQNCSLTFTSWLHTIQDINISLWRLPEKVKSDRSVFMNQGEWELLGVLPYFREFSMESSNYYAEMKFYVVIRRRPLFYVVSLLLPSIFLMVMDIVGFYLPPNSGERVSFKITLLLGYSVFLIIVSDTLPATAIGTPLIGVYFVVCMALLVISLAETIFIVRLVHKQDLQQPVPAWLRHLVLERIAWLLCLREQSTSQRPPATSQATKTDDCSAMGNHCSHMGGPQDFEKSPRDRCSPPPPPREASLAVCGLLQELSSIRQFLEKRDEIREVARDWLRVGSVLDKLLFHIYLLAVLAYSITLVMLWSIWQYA

[7] = molecular target: T4, alpha1A (h) (Homo sapiens, UniProt P35348); assay: alpha1A (h) (antagonist radioligand); settings: read-out: Inhibition alpha1A (h) (antagonist radioligand)
T4 sequence (P35348 1-466): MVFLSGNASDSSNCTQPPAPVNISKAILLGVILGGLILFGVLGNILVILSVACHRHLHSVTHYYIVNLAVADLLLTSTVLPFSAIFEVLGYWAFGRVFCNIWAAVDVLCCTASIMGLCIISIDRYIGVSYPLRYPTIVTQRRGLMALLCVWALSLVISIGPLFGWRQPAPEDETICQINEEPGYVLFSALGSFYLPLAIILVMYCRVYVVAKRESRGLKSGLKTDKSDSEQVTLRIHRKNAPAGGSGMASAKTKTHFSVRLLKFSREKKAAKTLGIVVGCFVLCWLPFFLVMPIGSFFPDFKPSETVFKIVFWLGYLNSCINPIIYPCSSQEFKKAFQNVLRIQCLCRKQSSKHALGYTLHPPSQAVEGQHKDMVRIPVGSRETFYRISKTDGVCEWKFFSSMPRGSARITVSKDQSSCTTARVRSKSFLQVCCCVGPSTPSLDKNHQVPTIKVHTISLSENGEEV

[8] = molecular target: glycine (strychnine-insensitive) (Rattus norvegicus, UniProt P35439); assay: glycine (strychnine-insensitive) (antagonist radioligand); settings: read-out: Inhibition glycine (strychnine-insensitive) (antagonist radioligand)
[9] = purified cynomolgus monkey MAGL, native MS substrate assay, read-out: IC50 cMAGL

Sequence of GSK3alpha (h) (P49840 whole entry): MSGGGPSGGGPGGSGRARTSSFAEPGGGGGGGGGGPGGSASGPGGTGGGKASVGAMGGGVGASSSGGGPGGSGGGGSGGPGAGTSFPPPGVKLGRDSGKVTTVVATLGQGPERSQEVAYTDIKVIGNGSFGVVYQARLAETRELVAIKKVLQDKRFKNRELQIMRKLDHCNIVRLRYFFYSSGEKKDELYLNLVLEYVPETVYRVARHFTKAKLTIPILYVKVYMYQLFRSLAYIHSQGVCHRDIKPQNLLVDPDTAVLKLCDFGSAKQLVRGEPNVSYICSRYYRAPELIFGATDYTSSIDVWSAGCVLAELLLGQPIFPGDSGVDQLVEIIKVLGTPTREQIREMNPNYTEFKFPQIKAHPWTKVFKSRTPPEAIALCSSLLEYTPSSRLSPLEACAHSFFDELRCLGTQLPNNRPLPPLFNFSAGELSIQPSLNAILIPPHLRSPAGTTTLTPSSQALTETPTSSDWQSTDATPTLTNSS
Sequence of FP (h) (P43088 whole entry): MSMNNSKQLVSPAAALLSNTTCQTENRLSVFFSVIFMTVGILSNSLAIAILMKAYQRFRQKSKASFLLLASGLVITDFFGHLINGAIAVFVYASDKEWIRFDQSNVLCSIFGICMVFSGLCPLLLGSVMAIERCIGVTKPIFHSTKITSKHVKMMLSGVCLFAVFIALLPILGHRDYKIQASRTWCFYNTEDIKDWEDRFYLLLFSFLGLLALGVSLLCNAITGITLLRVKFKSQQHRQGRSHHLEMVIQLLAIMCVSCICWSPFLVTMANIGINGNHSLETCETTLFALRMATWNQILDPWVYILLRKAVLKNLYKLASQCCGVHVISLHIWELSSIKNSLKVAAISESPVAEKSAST
Sequence of glycine (strychnine-insensitive) (P35439 394-800): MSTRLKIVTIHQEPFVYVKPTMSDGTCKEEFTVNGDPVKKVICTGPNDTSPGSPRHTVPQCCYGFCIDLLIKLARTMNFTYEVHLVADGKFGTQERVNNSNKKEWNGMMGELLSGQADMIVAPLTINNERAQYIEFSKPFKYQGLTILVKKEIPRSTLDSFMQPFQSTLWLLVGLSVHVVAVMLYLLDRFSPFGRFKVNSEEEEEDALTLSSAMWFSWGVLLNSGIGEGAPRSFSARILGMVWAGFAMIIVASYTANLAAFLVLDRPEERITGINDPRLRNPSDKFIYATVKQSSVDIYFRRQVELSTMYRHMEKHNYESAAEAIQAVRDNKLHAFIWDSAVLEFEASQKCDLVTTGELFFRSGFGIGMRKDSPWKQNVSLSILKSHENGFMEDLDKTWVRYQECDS
Sequence of PDE4D2 (h) (Q08499 303-809 limits assumed): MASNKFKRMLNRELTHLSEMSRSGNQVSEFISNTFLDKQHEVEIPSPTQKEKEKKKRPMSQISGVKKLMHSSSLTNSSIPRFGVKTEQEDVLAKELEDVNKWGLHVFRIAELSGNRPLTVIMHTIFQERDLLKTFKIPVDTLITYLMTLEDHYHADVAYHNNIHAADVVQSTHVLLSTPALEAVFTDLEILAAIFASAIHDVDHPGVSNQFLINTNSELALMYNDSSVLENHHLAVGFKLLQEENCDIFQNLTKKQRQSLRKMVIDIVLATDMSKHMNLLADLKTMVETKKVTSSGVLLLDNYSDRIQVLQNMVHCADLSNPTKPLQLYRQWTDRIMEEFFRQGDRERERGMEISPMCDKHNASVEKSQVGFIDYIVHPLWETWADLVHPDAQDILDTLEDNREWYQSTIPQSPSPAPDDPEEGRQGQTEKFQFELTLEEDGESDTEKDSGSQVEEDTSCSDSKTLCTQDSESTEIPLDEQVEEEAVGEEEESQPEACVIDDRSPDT

SMILES | IC50 [1] [nM] | IC50 [2, 9] [nM] | inhibition at 10 µM [3] [%] | inhibition at 10 µM [4] [%] | inhibition at 10 µM [5] [%] | inhibition at 10 µM [6] [%] | inhibition at 10 µM [7] [%] | inhibition at 10 µM [8] [%] | IC50 [2] [nM]
O=C(O[C@H](CO)C(F)(F)F)N1CC2(CC(CC3=C4C=CC=[N+]4[B-](F)(F)n4cccc43)C2)C1 [Compound 1] | 0.28 | 0.87 | 18 | 0.3 | 11.6 | 7.4 | 7.6 | -6.7 | 
O=C(OC(C(F)(F)F)C(F)(F)F)N1CC2(CC(CC3=C4C=CC=[N+]4[B-](F)(F)n4cccc43)C2)C1 [Compound 2] | 0.39 | 0.24 | -0.6 | -3.4 | 6.5 | -5.6 | -4.6 | 6.5 | 
O=C(OC(C(F)(F)F)C(F)(F)F)N1CC2(CC(CC3=C4C=CC(c5ccc[nH]5)=[N+]4[B-](F)(F)n4cccc43)C2)C1 [Compound 2a] | 0.98 | 0.63 | -10.8 | -5.8 | 4.4 | 4.7 | -3.4 | -2 | 
O=C1CO[C@H]2CCN(C(=O)N3CC4(CC(CC5=C6C=CC=[N+]6[B-](F)(F)n6cccc65)C4)C3)C[C@H]2N1 [Compound 4] | 0.94 | 1.14 |  |  |  |  |  |  | 
O=C1CO[C@H]2CCN(C(=O)N3CC4(CC(CC5=C6C=CC(c7ccc[nH]7)=[N+]6[B-](F)(F)n6cccc65)C4)C3)C[C@H]2N1 [Compound 4a] | 0.14 |  | 10.8 | -24.8 | 16.3 | 1.1 | 45.5 | 3.1 | 0.2
O=C(N1CC2(CC(CC3=C4C=CC=[N+]4[B-](F)(F)n4cccc43)C2)C1)N1CC2(CC(n3cnc(C4CC4)n3)C2)C1 [Compound 5] | 0.58 |  | 11.3 | -1.8 | 10.4 | 1.4 | 2.1 | -20.3 | 0.5
